Measured values from article PMC7456477, “Pharmacokinetic Study of Thirteen Ingredients after the Oral Administration of Flos Chrysanthemi Extract in Rats by UPLC-MS/MS” (BioMed Research International, 2020).

Columns and labels:
[1] = Pharmacokinetic study in rat plasma after oral administration of Flos Chrysanthemi extract (UPLC-MS/MS); format: in vivo, Sprague-Dawley rats; conditions: rats, oral Flos Chrysanthemi extract 10 g/kg; for AUC(0-inf) / Cmax / Tmax / half-life / AUC / k el: male, Sprague-Dawley, rat, plasma, n = 6; for AUC: read-out: AUC(0 − tn); for k el: read-out: Ke (converted); for Detection in plasma over the sampling time: result in words
Experimental: Six male Sprague-Dawley rats (250 ± 5 g) were purchased from Huafukang Bioscience Co., Inc. (Beijing, China). The rats were adapted to the facility for a week. Before the experiments, rats were fasted for 12 h, although drinking water was readily accessible. Flos Chrysanthemi extract was dissolved in CMC-Na aqueous solution and orally administered to the animals once at 10 g/kg. Blood samples (220 μL) were taken from the orbital venous plexus of rats at 0, 0.03, 0.08, 0.17, 0.25, 0.5, 1, 2, 4, 6, 8, 10, 12, and 24 h after extract administration. Blood samples were promptly centrifuged at 6000 rpm for 10 min, and plasma samples were collected. The obtained plasma was stored at -80°C until analysis. “Drug and Statistics 3.0” software (Medical College of Wannan, China) was used to calculate pharmacokinetic parameters. The animal protocol was approved by the Animal Ethics Committee of Tianjin University of Traditional Chinese Medicine (TCM-LAEC20190056).
Plasma samples from rats orally administered with Flos Chrysanthemi extract (10.0 g/kg) were analysed with UPLC-MS/MS. Plasma concentration-time curves are shown in Figure 3, and the primary pharmacokinetic parameters of each analyte are summarized in Table 6.

[2] = Stability of analytes in rat plasma (QC samples under four storage conditions); format: in vitro ADME; conditions: n = 6
Experimental: To study the stability of all compounds in rat plasma, low, medium, and high concentrations of QC samples were tested under the following test conditions: stored at an autosampler for 12 hours, stored at room temperature for 6 hours, put through three freeze/thaw cycles, and stored at -80°C for 14 days. Three QC concentrations were tested for each of the above conditions.
The stability of all 13 analytes during sample collection and processing was evaluated with the various storage conditions being tested on spiked plasma samples at three QC concentrations.

[3] = spiked concentration 2000 ng/mL
[4] = spiked concentration 4000 ng/mL
[5] = spiked concentration 1000 ng/mL

AUC(0-inf) [1] [ng·h/mL]	Cmax [1] [ng/mL]	Tmax [1] [h]	half-life [1] [h]	AUC [1] [ng·h/mL]	k el [1] [s⁻¹]	Measured concentration, -80°C for 14 days ([2]; spiked concentration 10 ng/mL) [ng/mL]	Measured concentration, Autosampler for 12 h ([2]; spiked concentration 10 ng/mL) [ng/mL]	Measured concentration, Room temperature for 6 h ([2]; spiked concentration 10 ng/mL) [ng/mL]	Measured concentration, Three freeze-thaw cycles ([2]; spiked concentration 10 ng/mL) [ng/mL]	Measured concentration, -80°C for 14 days ([2]; spiked concentration 200 ng/mL) [ng/mL]	Measured concentration, Autosampler for 12 h ([2]; spiked concentration 200 ng/mL) [ng/mL]	Measured concentration, Room temperature for 6 h ([2]; spiked concentration 200 ng/mL) [ng/mL]	Measured concentration, Three freeze-thaw cycles ([2]; spiked concentration 200 ng/mL) [ng/mL]	Compound	Detection in plasma over the sampling time [1]	also measured
6730 ± 2280	749 ± 195	0.5 ± 0.27	6.17 ± 1.43	6450 ± 1810	3.33e-05	8.8 ± 0.2	9.6 ± 0.3	10.9 ± 0.8	11.1 ± 0.1	–	–	–	–	O=C(O)[C@H]1O[C@@H](Oc2cc(O)c3c(=O)cc(-c4ccc(O)c(O)c4)oc3c2)[C@H](O)[C@@H](O)[C@@H]1O [Luteolin 7-O-glucuronide]	–	Measured concentration, -80°C for 14 days ([2]; spiked concentration 100 ng/mL): 99.7 ± 0.3 ng/mL; Measured concentration, Autosampler for 12 h ([2]; spiked concentration 100 ng/mL): 90.7 ± 0.4 ng/mL; Measured concentration, Room temperature for 6 h ([2]; spiked concentration 100 ng/mL): 110.9 ± 1.2 ng/mL; Measured concentration, Three freeze-thaw cycles ([2]; spiked concentration 100 ng/mL): 112.6 ± 0.5 ng/mL; Measured concentration, -80°C for 14 days [2, 3]: 1930.7 ± 22.5 ng/mL; Measured concentration, Autosampler for 12 h [2, 3]: 1960.1 ± 38.5 ng/mL; Measured concentration, Room temperature for 6 h [2, 3]: 2214.4 ± 17.9 ng/mL; Measured concentration, Three freeze-thaw cycles [2, 3]: 2225.7 ± 9.3 ng/mL
25100 ± 2230	2080 ± 307	0.5	8.89 ± 4.01	24200 ± 2110	2.78e-05	–	–	–	–	195.1 ± 2.6	181.7 ± 0.8	193.5 ± 3.3	223.7 ± 1.5	O=c1cc(-c2ccc(O)c(O)c2)oc2cc(O)cc(O)c12 [Luteolin]	–	Measured concentration, -80°C for 14 days ([2]; spiked concentration 20 ng/mL): 17.4 ± 0.3 ng/mL; Measured concentration, Autosampler for 12 h ([2]; spiked concentration 20 ng/mL): 21.3 ± 0.4 ng/mL; Measured concentration, Room temperature for 6 h ([2]; spiked concentration 20 ng/mL): 20.3 ± 0.3 ng/mL; Measured concentration, Three freeze-thaw cycles ([2]; spiked concentration 20 ng/mL): 23.2 ± 0.7 ng/mL; Measured concentration, -80°C for 14 days [2, 4]: 4195.2 ± 15.1 ng/mL; Measured concentration, Autosampler for 12 h [2, 4]: 3656.3 ± 33.7 ng/mL; Measured concentration, Room temperature for 6 h [2, 4]: 4419.0 ± 9.2 ng/mL; Measured concentration, Three freeze-thaw cycles [2, 4]: 4475.1 ± 11.8 ng/mL
–	–	–	–	–	–	10.2 ± 0.2	9.3 ± 0.1	9.9 ± 0.3	11.3 ± 0.2	188.6 ± 0.9	179.0 ± 1.2	226.4 ± 0.2	209.6 ± 0.3	COc1ccc(-c2cc(=O)c3c(O)cc(O[C@@H]4O[C@H](CO)[C@@H](O)[C@H](O)[C@H]4O)cc3o2)cc1 [Tilianin]	detected only at the first few blood sampling points	Measured concentration, -80°C for 14 days ([2]; spiked concentration 1 ng/mL): 0.9 ± 0.1 ng/mL; Measured concentration, Autosampler for 12 h ([2]; spiked concentration 1 ng/mL): 0.9 ± 0.1 ng/mL; Measured concentration, Room temperature for 6 h ([2]; spiked concentration 1 ng/mL): 1.1 ± 0.1 ng/mL; Measured concentration, Three freeze-thaw cycles ([2]; spiked concentration 1 ng/mL): 1.0 ± 0.1 ng/mL
–	–	–	–	–	–	–	–	–	–	–	–	–	–	Isoquercitrin	detected only at the first few blood sampling points	Measured concentration, -80°C for 14 days ([2]; spiked concentration 5 ng/mL): 4.5 ± 0.1 ng/mL; Measured concentration, Autosampler for 12 h ([2]; spiked concentration 5 ng/mL): 4.0 ± 0.2 ng/mL; Measured concentration, Room temperature for 6 h ([2]; spiked concentration 5 ng/mL): 4.7 ± 0.2 ng/mL; Measured concentration, Three freeze-thaw cycles ([2]; spiked concentration 5 ng/mL): 5.6 ± 0.1 ng/mL; Measured concentration, -80°C for 14 days ([2]; spiked concentration 50 ng/mL): 50.7 ± 2.1 ng/mL; Measured concentration, Autosampler for 12 h ([2]; spiked concentration 50 ng/mL): 41.6 ± 0.5 ng/mL; Measured concentration, Room temperature for 6 h ([2]; spiked concentration 50 ng/mL): 49.0 ± 1.2 ng/mL; Measured concentration, Three freeze-thaw cycles ([2]; spiked concentration 50 ng/mL): 54.5 ± 0.8 ng/mL; Measured concentration, -80°C for 14 days [2, 5]: 1006.3 ± 30.5 ng/mL; Measured concentration, Three freeze-thaw cycles [2, 5]: 1110.5 ± 21.8 ng/mL
